Assay results taken from US11453683B1, “KRas G12D inhibitors” (Mirati Therapeutics, Inc., priority 2019, dated 2022).

Test system: KRas G12D-mediated phosphorylation of ERK
Test: Inhibition of KRas G12D-mediated phosphorylation of ERK in AGS cells
Type: cell-based
Settings: Homo sapiens; AGS cells expressing G12D, 3 hours, phospho-ERK normalized to GAPDH
Summary of the method: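 Fixed, methanol-permeabilized; phospho-ERK (Thr202/Tyr204) by in-cell immunofluorescence normalized to GAPDH. Percent of DMSO control, IC50 by 4-parameter fit.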

| SMILES | IC50 [nM] |
| --- | --- |
| O=C(O[C@@H]1CN2CCC[C@]2(COc2nc(N3C[C@H]4CC[C@@H](C3)N4)c3cnc(-c4cccc5cccc(Cl)c45)c(F)c3n2)C1)N1CCOCC1 [Example 436, (2S,7aR)-7a-(((4-((1R,5S)-3,8-diazabicyclo[3.2.1]octan-3-yl)-7-(8-chloronaphthalen-1-yl)-8-fluoropyrido[4,3-d]pyrimidin-2-yl)oxy)methyl)hexahydro-1H-pyrrolizin-2-yl morpholine-4-carboxylate] | 3990 |
| Cn1ccnc1CCOc1nc(N2C[C@H]3CC[C@@H](C2)N3)c2cnc(-c3cc(O)cc4ccccc34)c(F)c2n1 [Example 3, 4-(4-((1R,5S)-3,8-diazabicyclo[3.2.1]octan-3-yl)-8-fluoro-2-(2-(1-methyl-1H-imidazol-2-yl)ethoxy)pyrido[4,3-d]pyrimidin-7-yl)naphthalen-2-ol] | 10300 |
| Oc1cc(-c2ncc3c(N4C[C@H]5CC[C@@H](C4)N5)nc(OCC45CCCN4CCC5)nc3c2F)c2c(Cl)c(F)ccc2c1 [Example 245, 4-(4-((1R,5S)-3,8-diazabicyclo[3.2.1]octan-3-yl)-8-fluoro-2-((hexahydro-1H-pyrrolizin-7a-yl)methoxy)pyrido[4,3-d]pyrimidin-7-yl)-5-chloro-6-fluoronaphthalen-2-ol] | 23.4 |
| Cn1ccnc1CCOc1nc(N2C[C@H]3CC[C@@H](C2)N3)c2cnc(-c3cccc4cccc(Cl)c34)c(F)c2n1 [Example 114, 4-((1R,5S)-3,8-diazabicyclo[3.2.1]octan-3-yl)-7-(8-chloronaphthalen-1-yl)-8-fluoro-2-(2-(1-methyl-1H-imidazol-2-yl)ethoxy)pyrido[4,3-d]pyrimidine] | 10300 |
| CCc1c(F)ccc2cccc(-c3ncc4c(N5CC6CCC(C5)N6)nc(OC[C@@]56CCCN5C[C@H](F)C6)nc4c3F)c12 (stereo in doubt) [Example 381, 4-((1R,5S)-3,8-diazabicyclo[3.2.1]octan-3-yl)-7-(8-ethyl-7-fluoronaphthalen-1-yl)-8-fluoro-2-((2-fluorotetrahydro-1H-pyrrolizin-7a(5H)-yl)methoxy)pyrido[4,3-d]pyrimidine] | 708 |
| CN1CCC[C@H]1COc1nc(N2CC3CCC(C2)N3)c2cnc(-c3c(Cl)c(O)cc4ccccc34)c(F)c2n1 [Example 337, 4-(4-(3,8-diazabicyclo[3.2.1]octan-3-yl)-8-fluoro-2-(((S)-1-methylpyrrolidin-2-yl)methoxy)pyrido[4,3-d]pyrimidin-7-yl)-3-chloronaphthalen-2-ol] | 1620 |
| Cc1cccc(-c2ncc3c(N4C[C@H]5CC[C@@H](C4)N5)nc(OCC45CCCN4CCC5)nc3c2F)c1C(C)C [Example 301, 4-((1R,5S)-3,8-diazabicyclo[3.2.1]octan-3-yl)-8-fluoro-2-((hexahydro-1H-pyrrolizin-7a-yl)methoxy)-7-(2-isopropyl-3-methylphenyl)pyrido[4,3-d]pyrimidine] | 3170 |
| FCCCc1cccc2cccc(-c3ncc4c(N5C[C@H]6CC[C@@H](C5)N6)nc(OCC56CCCN5CCC6)nc4c3F)c12 [Example 255, 4-((1R,5S)-3,8-diazabicyclo[3.2.1]octan-3-yl)-8-fluoro-7-(8-(3-fluoropropyl)naphthalen-1-yl)-2-((hexahydro-1H-pyrrolizin-7a-yl)methoxy)pyrido[4,3-d]pyrimidine] | 673 |
| Cc1c(-c2cc(O)cc3ccccc23)ncc2c(N3C[C@H]4CC[C@@H](C3)N4)nc(OC[C@@H]3CCCN3C)nc12 [Example 190, 4-(4-((1R,5S)-3,8-diazabicyclo[3.2.1]octan-3-yl)-8-methyl-2-(((S)-1-methylpyrrolidin-2-yl)methoxy)pyrido[4,3-d]pyrimidin-7-yl)naphthalen-2-ol] | 16300 |
| C=Cc1cccc2cccc(-c3ncc4c(N5C[C@H]6CC[C@@H](C5)N6)nc(OC[C@@H]5CCCN5C)nc4c3F)c12 [Example 201, 4-((1R,5S)-3,8-diazabicyclo[3.2.1]octan-3-yl)-8-fluoro-2-(((S)-1-methylpyrrolidin-2-yl)methoxy)-7-(8-vinylnaphthalen-1-yl)pyrido[4,3-d]pyrimidine] | 13900 |
| OCCOc1nc(N2C[C@H]3CC[C@@H](C2)N3)c2cnc(-c3cc(O)cc4ccccc34)c(F)c2n1 [Example 69, 4-(4-((1R,5S)-3,8-diazabicyclo[3.2.1]octan-3-yl)-8-fluoro-2-(2-hydroxyethoxy)pyrido[4,3-d]pyrimidin-7-yl)naphthalen-2-ol] | > 16700 |
| C#Cc1cccc2cccc(-c3ncc4c(N5C[C@H]6CC[C@@H](C5)N6)nc(OCC56CCCN5CCC6)nc4c3F)c12 [Example 179, 4-((1R,5S)-3,8-diazabicyclo[3.2.1]octan-3-yl)-7-(8-ethynylnaphthalen-1-yl)-8-fluoro-2-((hexahydro-1H-pyrrolizin-7a-yl)methoxy)pyrido[4,3-d]pyrimidine] | 71.2 |
| CC1(C)CN2C[C@H](F)CC2(COc2nc(N3CC4CCC(C3)N4)c3cnc(-c4cccc5cccc(Cl)c45)c(F)c3n2)C1 (mixture of isomers) [Example 325, 4-((1R,5S)-3,8-diazabicyclo[3.2.1]octan-3-yl)-7-(8-chloronaphthalen-1-yl)-8-fluoro-2-((6-fluoro-2,2-dimethyltetrahydro-1H-pyrrolizin-7a(5H)-yl)methoxy)pyrido[4,3-d]pyrimidine] | > 16700 |
| O=C(OC[C@H]1CC[C@@]2(COc3nc(N4CC5CCC(C4)N5)c4cnc(-c5cccc6cccc(Cl)c56)c(F)c4n3)CCCN12)N1CCOCC1 [Example 445, ((3R,7aR)-7a-(((4-(3,8-diazabicyclo[3.2.1]octan-3-yl)-7-(8-chloronaphthalen-1-yl)-8-fluoropyrido[4,3-d]pyrimidin-2-yl)oxy)methyl)hexahydro-1H-pyrrolizin-3-yl)methyl morpholine-4-carboxylate] | 130 |
| CN1CCC[C@H]1COc1nc(N2CC3CCC(C)(C2)N3)c2cnc(-c3cc(O)cc4ccccc34)c(F)c2n1 (stereo partly drawn) [Example 156, 4-(8-fluoro-4-(1-methyl-3,8-diazabicyclo[3.2.1]octan-3-yl)-2-(((S)-1-methylpyrrolidin-2-yl)methoxy)pyrido[4,3-d]pyrimidin-7-yl)naphthalen-2-ol bis(2,2,2-trifluoroacetate)] | 1790 |
| Oc1cc(-c2ncc3c(N4C[C@H]5CC[C@@H](C4)N5)nc(OCC45CCCN4C(CF)CC5)nc3c2F)c2c(Cl)cccc2c1 (stereo partly drawn) [Example 400, 4-(4-((1R,5S)-3,8-diazabicyclo[3.2.1]octan-3-yl)-8-fluoro-2-((3-(fluoromethyl)tetrahydro-1H-pyrrolizin-7a(5H)-yl)methoxy)pyrido[4,3-d]pyrimidin-7-yl)-5-chloronaphthalen-2-ol] | 261 |
| Oc1cc(Cl)c(C2CC2)c(-c2ncc3c(N4C[C@H]5CC[C@@H](C4)N5)nc(OC[C@@]45CCCN4C[C@H](F)C5)nc3c2F)c1 [Example 283, 3-(4-((1R,5S)-3,8-diazabicyclo[3.2.1]octan-3-yl)-8-fluoro-2-(((2R,7aS)-2-fluorohexahydro-1H-pyrrolizin-7a-yl)methoxy)pyrido[4,3-d]pyrimidin-7-yl)-5-chloro-4-cyclopropylphenol] | 7 |
| CN1CCC[C@H]1COc1nc(N2C[C@H]3CC[C@@H](C2)N3)c2cnc(-c3cc(O)cc4ccccc34)c(Cl)c2n1 [Example 191, 4-(4-((1R,5S)-3,8-diazabicyclo[3.2.1]octan-3-yl)-8-chloro-2-(((S)-1-methylpyrrolidin-2-yl)methoxy)pyrido[4,3-d]pyrimidin-7-yl)naphthalen-2-ol] | 5050 |
